Test results as given in patent publication US6673839B1, “Pharmaceutical compositions with antitumour activity” (Universita' Degli Studi di Catania, priority 1998, dated 2004).

How the values were obtained:
Assay type in all cases: cell-based, human
[1] = test system: Cells from Nasopharynx Carcinoma Explant; experiment: In vitro short-term chemosensitivity assay (MTT); settings: Table 1, 24 h
Procedure: (§1) The effects of L-aC on cells from 4 primitive epidermoid carcinomas of the larynx and 1 primitive undifferentiated carcinoma of the nasopharynx were tested.
(§2) Tissue fragments from the tumour mass were mechanically dissociated in Hank's solutions adding an antibiotic and an antifungal to obtain a cell monosuspension free of agglomerates. The resulting suspension was centrifuged at 1200 rpm for 5 minutes and the pellet was resuspended in MEM culture medium supplemented with 10% of patient serum, to obtain a concentration of 10^5 cells/ml. Subsequently, 180 μl of the resulting suspension were dispensed in microplate wells and incubated under 5% CO2 atmosphere at 37° C. for 3 days. After that, the antitumor medicaments were added in the amount of 20 μl for each well, at a concentration of 0.1×, 1× and 10× the maximum serum concentrations that can usually be reached in clinical practice. 24 h after the beginning of the exposure to the antitumour medicament, 100 μl of MTT were added, and after 4 h, a further 150 μl of dimethylsulfoxide were added.
(§3) The optical density was evaluated by a Uniscan microspectrophotometer with a […] wavelength filter. Cytotoxicity was evaluated as percentage of the optical density of the treated sample compared with the optical density of the control.
(§4) Bleomycin (BLEC), […] (CDDP), 5-fluoruracil (5-FU), vincristine (VCR), epidoxorubicin (Epi-Dx) and methotrexate (MTX) were tested for comparison purposes.
(§5) L-aC was tested at the following concentrations: 0.2-2-20 mg/ml.
(§6) In vitro short-term chemosensitivity assay (according to Hill and coll.)
(§7) (Cell Vitality Percentage After Exposure to the Antitumoral)—Raw Data
(Cells from Nasopharynx Carcinoma Explant)

[2] = test system: Cells from Larynx Carcinoma Explant; experiment: In vitro short-term chemosensitivity assay (MTT)
Procedure: as §1, §2, §3, §4, §5, §6, §7
(Cells from Larynx Carcinoma Explant)

[3] = test system: cells from 4 primitive epidermoid carcinomas of the larynx and 1 primitive undifferentiated carcinoma of the nasopharynx; experiment: In vitro short-term chemosensitivity assay (MTT), all five explants; settings: five explants
Procedure: as §1, §2, §3, §4, §5

[4] = 0.1x maximum clinical serum concentration (L-aC tested at 0.2-2-20 mg/ml)
[5] = 1x maximum clinical serum concentration
[6] = 10x maximum clinical serum concentration

Row | Molecule | Cell Vitality Percentage After Exposure [1, 4] [%] | Cell Vitality Percentage After Exposure [1, 5] [%] | Cell Vitality Percentage After Exposure [1, 6] [%] | Cell Vitality Percentage After Exposure ([2]; Table 4 explant, 0.1x) [%] | Cell Vitality Percentage After Exposure ([2]; Table 4 explant, 1x) [%] | Cell Vitality Percentage After Exposure ([2]; Table 4 explant, 10x) [%] | most active medicaments (cases out of 5) [3] | Cell Vitality Percentage After Exposure ([2]; Table 2 explant, 0.1x) [%] | Cell Vitality Percentage After Exposure ([2]; Table 2 explant, 1x) [%] | Cell Vitality Percentage After Exposure ([2]; Table 2 explant, 10x) [%] | Cell Vitality Percentage After Exposure ([2]; Table 3 explant, 0.1x) [%] | Cell Vitality Percentage After Exposure ([2]; Table 3 explant, 1x) [%] | Cell Vitality Percentage After Exposure ([2]; Table 3 explant, 10x) [%] | Cell Vitality Percentage After Exposure ([2]; Table 5 explant, 0.1x) [%] | Cell Vitality Percentage After Exposure ([2]; Table 5 explant, 1x) [%] | Cell Vitality Percentage After Exposure ([2]; Table 5 explant, 10x) [%]
1 | CN(Cc1cnc2nc(N)nc(N)c2n1)c1ccc(C(=O)N[C@@H](CCC(=O)O)C(=O)O)cc1 [MTX, methotrexate] | 13.5 | 5 | 3.9 | 18 | 4 | 3.1 | 2/5 |  |  |  |  |  |  |  |  | 
2 | N.N.O=C([O-])C1(C(=O)[O-])CCC1.[Pt+2] [CBP, carboplatin] | 7.1 | 7 | 6.5 |  |  |  |  | 78 | 58 | 34 | 88 | 50 | 21 | 72 | 53 | 45
3 | O=c1[nH]cc(F)c(=O)[nH]1 [5-FU, 5-fluoruracil] | 43 | 12 | 5.7 | 40 | 14 | 14 | 1/5 | 53 | 38 | 13 | 52 | 45 | 23 | 55 | 13 | 8.2
4 | COc1cccc2c1C(=O)c1c(O)c3c(c(O)c1C2=O)C[C@@](O)(C(=O)CO)C[C@@H]3O[C@H]1C[C@H](N)[C@@H](O)[C@H](C)O1 [Epi-Dx, epidoxorubicin] | 14 | 7.8 | 4.8 | 16 | 8 | 8 | 2/5 | 59 | 21 | 7 | 57 | 32 | 16 | 60 | 21 | 18
5 | CC[C@]1(O)C[C@H]2CN(CCc3c([nH]c4ccccc34)[C@@](C(=O)OC)(c3cc4c(cc3OC)N(C=O)[C@H]3[C@@](O)(C(=O)OC)[C@H](OC(C)=O)[C@]5(CC)C=CCN6CC[C@]43[C@@H]65)C2)C1 [VCR, vincristine] | 7.8 | 4.6 | 3.8 | 1.9 | 1.3 | 1.3 | 4/5 | 70 | 45 | 11 | 32 | 19 | 4.8 | 23 | 4.2 | 2
6 | Bleomycin [BLM] |  |  |  | 82 | 79 | 62 |  | 55 | 36 | 17 | 81 | 68 | 34 | 60 | 35 | 31
